Patent US20240240224A1, “FLUORESCENT D-TYPE AMINO ACID METABOLISM MARKER-BASED METHOD FOR DETECTING ANTIBACTERIAL DRUG SENSITIVITY TEST” (priority 2020, published 2024)

Columns and labels:
S. aureus Sa22 [1] = test: BMD susceptibility test; format: cell-based, Staphylococcus aureus; settings: unit assumed
S. aureus ATCC29213 [2] = test: FaAST (FDAA metabolic labeling method); format: cell-based, Staphylococcus aureus; settings: unit assumed
Method: (§1) Take the colony to be tested that has been cultured overnight on the plate and fully mix it in normal saline to make a uniform bacterial solution. Dilute it into Cation-Adjusted Mueller Hinton Broth (CAMHB) culture medium to make a bacterial solution with OD600=0.05. • 2. Add 45 μl antibiotic solutions of different concentrations to 96-well plates (see Table 1 for antibiotic concentration gradient settings). • 3. Add 50 μl of the bacterial solution prepared in step 1 to the 96-well plate and mix well. • 4. Add 5 μl of 10 mM Cy5-DAA probe (final concentration 0.15 mM, see FIG. 1 for its structure) into each well, mix well, and cultivate in dark for 2 hours. • 5. Add 200 μl After PBS solution is diluted, the fluorescence intensity of each sample is detected by flow cytometry. The flow detection results are shown in FIG. 4-5, showing the curve of the change of antibiotic concentration gradient and fluorescence intensity. The MIC (minimum inhibitory concentration) can be obtained by referring to this curve.
(§2) Bacteria with antibiotic resistance are shown in bold in the following table.

S. aureus Sa22 [3] = test: FaAST (FDAA metabolic labeling method); format: cell-based, Staphylococcus aureus; settings: unit assumed
Method: as §1, §2

S. aureus Sa23 [4] = test: FaAST (FDAA metabolic labeling method); format: cell-based, Staphylococcus aureus; settings: unit assumed
Method: as §1, §2

S. aureus Sa23 [5] = test: BMD susceptibility test; format: cell-based, Staphylococcus aureus; settings: unit assumed
S. aureus ATCC29213 [6] = test: BMD susceptibility test; format: cell-based, Staphylococcus aureus; settings: unit assumed
E. faecium Ef26 [7] = test: BMD susceptibility test; format: cell-based, Enterococcus faecium; settings: unit assumed
E. faecium Ef26 [8] = test: FaAST (FDAA metabolic labeling method); format: cell-based, Enterococcus faecium; settings: unit assumed
Method: as §1, §2

E. faecium Ef28 [9] = test: BMD susceptibility test; format: cell-based, Enterococcus faecium; settings: unit assumed
E. faecium Ef28 [10] = test: FaAST (FDAA metabolic labeling method); format: cell-based, Enterococcus faecium; settings: unit assumed
Method: as §1, with “The flow detection results are shown in FIG. 4-5, showing the curve of the change of antibiotic concentration gradient and fluorescence intensity.” left out

E. faecalis ATCC29212 [11] = test: BMD susceptibility test; format: cell-based, Enterococcus faecalis; settings: unit assumed
E. faecalis ATCC29212 [12] = test: FaAST (FDAA metabolic labeling method); format: cell-based, Enterococcus faecalis; settings: unit assumed
Method: as §1, §2

[13] = system: alveolar lavage fluid sample 0130, A. baumannii; test: BMD susceptibility test of patient alveolar lavage fluid; format: cell-based, Acinetobacter baumannii; settings: unit assumed
From the text: (§3) The results of antimicrobial susceptibility test of alveolar lavage fluid of seven patients using FDAA and BMD methods are shown in the following table. The drug-resistant bacteria are shown in bold.

[14] = system: alveolar lavage fluid sample 0206, A. baumannii; test: as above; format: cell-based, Acinetobacter baumannii; settings: unit assumed
From the text: as §3

[15] = system: alveolar lavage fluid sample 0219, A. baumannii; test: as above; format: cell-based, Acinetobacter baumannii; settings: unit assumed
From the text: as §3

[16] = system: alveolar lavage fluid sample 0130, A. baumannii; test: FaAST (FDAA) susceptibility test of patient alveolar lavage fluid; format: cell-based, Acinetobacter baumannii; settings: unit assumed
Method: (§4) With reference to the flow chart of the rapid detection method of antimicrobial susceptibility test based on FDAA metabolic markers shown in FIG. 3, FDAA is used for the detection of antimicrobial susceptibility test of alveolar lavage fluid. The specific experimental steps are as follows: • 1. Mix bronchoalveolar lavage fluid (BALF, 10 ml) of patients with hospital acquired pneumonia with cation regulated broth medium (CAMHB, 10 ml) of twice the concentration to prepare the bacterial fluid to be tested. • 2. Add 45 μl antibiotic solutions of different concentrations to the 96-well plate separately (see Table 1 for antibiotic concentration gradient settings). • 3. Add 50 μl of the bacterial solution prepared in step 1 to the 96-well plate and mix well. • 4. Add 5 μl of 10 mM Cy5-DAA probe (final concentration 0.15 mM, see FIG. 1 for its structure) into each well, mix well, and then cultivate in dark for 2 hours. • 5. Add 200 μl PBS solution for dilution, and then use flow cytometry to detect the fluorescence intensity of each sample.
as §3

[17] = system: alveolar lavage fluid sample 0204, A. baumannii; test: as above; format: cell-based, Acinetobacter baumannii; settings: unit assumed
Method: as §4, §3

[18] = system: alveolar lavage fluid sample 0206, A. baumannii; test: as above; format: cell-based, Acinetobacter baumannii; settings: unit assumed
Method: as §4, §3

[19] = system: alveolar lavage fluid sample 0219, A. baumannii; test: as above; format: cell-based, Acinetobacter baumannii; settings: unit assumed
Method: as §4, §3

[20] = system: alveolar lavage fluid sample 0203, K. pneumoniae; test: BMD susceptibility test of patient alveolar lavage fluid; format: cell-based, Klebsiella pneumoniae; settings: unit assumed
From the text: as §3

[21] = system: alveolar lavage fluid sample 0226, K. pneumoniae; test: as above; format: cell-based, Klebsiella pneumoniae; settings: unit assumed
From the text: as §3

[22] = system: alveolar lavage fluid sample 0203, K. pneumoniae; test: FaAST (FDAA) susceptibility test of patient alveolar lavage fluid; format: cell-based, Klebsiella pneumoniae; settings: unit assumed
Method: as §4, §3

[23] = system: alveolar lavage fluid sample 0226, K. pneumoniae; test: as above; format: cell-based, Klebsiella pneumoniae; settings: unit assumed
Method: as §4, §3

[24] = system: Staphylococcus aureus SA31; test: FaAST with DAA-Tetra probe; format: cell-based; settings: unit assumed
Method: The specific experimental steps are as follows: • 1. The tested colonies cultured overnight on the plate were picked and mixed thoroughly in 2× Cation-Adjusted Mueller Hinton Broth medium (2×CAMHB) to make bacterial suspension with turbidity of OD600=0.1. • 2. […] Add 50 μL of the bacterial solution prepared in step 1 (the final concentration of the bacterial solution is OD600=0.05) to the 96-well plate, and add 5 μL of 3 mM DAA-Tetra probe (the final concentration is 0.15 mM), mix well, and incubate in the dark at 37° C. 120 rpm for 2 hours. • 4. After culture, dilute the mixed bacterial solution 10 times with PBS solution, and detect the fluorescence intensity of each sample with flow cytometry. The flow detection result is shown in FIG. 14-19, and the arrow is for the MIC value. The minimum inhibitory concentration of antibiotics was obtained according to the fluorescence signal intensity of flow detection, and the statistical results are shown in Table 6.

[25] = system: Staphylococcus aureus SA31; test: VITEK drug sensitivity test; format: cell-based; settings: unit assumed
[26] = system: Staphylococcus aureus SA22; test: FaAST with DAA-Cy5-2 probe; format: cell-based; settings: unit assumed
Method: as §4
The specific steps are the same as in Example 5. […] The minimum inhibitory concentration of antibiotics was obtained according to the fluorescence signal intensity of flow detection, and the statistical results are shown in Table 7.

[27] = system: Staphylococcus aureus SA22; test: VITEK drug sensitivity test; format: cell-based; settings: unit assumed
S. aureus ATCC29213 [28] = settings: cited from earlier work
E. faecalis ATCC29212 [29] = settings: cited from earlier work

CC(=O)NC[C@H]1CN(c2ccc(N3CCOCC3)c(F)c2)C(=O)O1 [Linezolid, linezolid]
1-4: CLSI QC range (S. aureus ATCC29213 [28]) | CLSI QC range (E. faecalis ATCC29212 [29])
1 µg/mL: FaAST (MIC) (S. aureus Sa22 [3]) | BMD (MIC) (E. faecalis ATCC29212 [11]) | MIC, FaAST [24] | MIC, VITEK [25] | MIC, VITEK [27]
32 µg/mL: BMD (MIC) [15]
0.5 µg/mL: MIC, FaAST [26]
8 µg/mL: FaAST (MIC) (S. aureus Sa23 [4]) | BMD (MIC) (S. aureus Sa23 [5])
64 µg/mL: BMD (MIC) [13] | FaAST (MIC) [16] | FaAST (MIC) [17] | FaAST (MIC) [18] | BMD (MIC) [20] | BMD (MIC) [21]
128 µg/mL: BMD (MIC) [14]
2 µg/mL: BMD (MIC) (S. aureus Sa22 [1]) | FaAST (MIC) (S. aureus ATCC29213 [2]) | BMD (MIC) (S. aureus ATCC29213 [6]) | BMD (MIC) (E. faecium Ef26 [7]) | FaAST (MIC) (E. faecium Ef26 [8]) | BMD (MIC) (E. faecium Ef28 [9]) | FaAST (MIC) (E. faecium Ef28 [10]) | FaAST (MIC) (E. faecalis ATCC29212 [12])
16 µg/mL: FaAST (MIC) [19] | FaAST (MIC) [22] | FaAST (MIC) [23]
